Key:
[1] = Antiproliferative activity against human U87 cells assessed as cell growth inhibition after 72 hrs by MTT assay; assay type: functional, cell-based, U-87MG ATCC; conditions: U-87 MG
SH-SY5Y = assay: Antiproliferative activity against human SH-SY5Y cells assessed as cell growth inhibition after 72 hrs by MTT assay; assay type: functional, cell-based
[2] = Antiproliferative activity against human MGC803 cells assessed as cell growth inhibition after 72 hrs by MTT assay; assay type: functional, cell-based; conditions: MGC-803, 72 h
[3] = Antiproliferative activity against human EC109 cells assessed as cell growth inhibition after 72 hrs by MTT assay; assay type: functional, cell-based; conditions: ECa-109, 72 h
MCF7 = assay: cells; conditions: Homo sapiens, MCF7, 72 h
Description: Antiproliferative activity against human MCF7 cells assessed as cell growth inhibition after 72 hrs by MTT assay

Row | Compound | IC50 [1] [µM] | IC50 (SH-SY5Y) [µM] | IC50 [2] [µM] | IC50 [3] [µM] | IC50 (MCF7) [µM]
1 | C[C@]12CC[C@H](OC(=O)Cn3cc(CN4C(=O)C(=O)c5c(Cl)cccc54)nn3)CC1=CC[C@@H]1[C@@H]2CC[C@]2(C)C(=O)CC[C@@H]12 | 33.1 | 18.5 | > 128 | 124 | > 128
2 | C[C@]12CC[C@H](OC(=O)Cn3cc(Cn4cc(F)c(=O)n(Cc5cn(CC(=O)O[C@H]6CC[C@@]7(C)C(=CC[C@@H]8[C@@H]7CC[C@]7(C)C(=O)CC[C@@H]87)C6)nn5)c4=O)nn3)CC1=CC[C@@H]1[C@@H]2CC[C@]2(C)C(=O)CC[C@@H]12 | > 128 | > 128 | > 128 | > 128 | > 128
3 | C[C@]12CC[C@H](OC(=O)Cn3cc(COc4ccc(/C=C/C(=O)c5ccc(F)cc5)cc4)nn3)CC1=CC[C@@H]1[C@@H]2CC[C@]2(C)C(=O)CC[C@@H]12 | > 128 | 46.5 | > 128 | > 128 | 91.5
4 | C[C@]12CC[C@H](OC(=O)Cn3cc(COc4ccc(Br)cc4)nn3)CC1=CC[C@@H]1[C@@H]2CC[C@]2(C)C(=O)CC[C@@H]12 | 30.1 | 22.7 | 48.2 | 21 | 93.2
5 | C[C@]12CC[C@H](OC(=O)Cn3cc(COc4ccc(C(=O)/C=C/c5ccc(Br)cc5)cc4)nn3)CC1=CC[C@@H]1[C@@H]2CC[C@]2(C)C(=O)CC[C@@H]12 | > 128 | 72.6 | > 128 | 79.8 | 112
6 | COc1ccc(NCc2cn(CC(=O)O[C@H]3CC[C@@]4(C)C(=CC[C@@H]5[C@@H]4CC[C@]4(C)C(=O)CC[C@@H]54)C3)nn2)cc1 | 96.5 | 69.8 | 11.6 | 24.7 | 21.3
7 | C[C@]12CC[C@H](OC(=O)Cn3cc(COc4ccc(C(=O)/C=C/c5ccc(F)c(F)c5)cc4)nn3)CC1=CC[C@@H]1[C@@H]2CC[C@]2(C)C(=O)CC[C@@H]12 | > 128 | 42.1 | > 128 | > 128 | 92.6
8 | C[C@]12CC[C@H](OC(=O)Cn3cc(COc4ccc(/C=C/C(=O)c5ccccc5)cc4)nn3)CC1=CC[C@@H]1[C@@H]2CC[C@]2(C)C(=O)CC[C@@H]12 | > 128 | 75 | > 128 | 118 | > 128
9 | C[C@]12CC[C@H](OC(=O)Cn3cc(CNc4cccc([N+](=O)[O-])c4)nn3)CC1=CC[C@@H]1[C@@H]2CC[C@]2(C)C(=O)CC[C@@H]12 | > 128 | > 128 | 28.6 | 55.4 | 45.2
10 | C[C@]12CC[C@H](OC(=O)Cn3cc(CN4C(=O)C(=O)c5cc(F)ccc54)nn3)CC1=CC[C@@H]1[C@@H]2CC[C@]2(C)C(=O)CC[C@@H]12 | 91.1 | 9.25 | 58.9 | > 128 | > 128
11 | C[C@]12CC[C@H](OC(=O)Cn3cc(COc4ccc(C(=O)/C=C/c5ccc([N+](=O)[O-])cc5)cc4)nn3)CC1=CC[C@@H]1[C@@H]2CC[C@]2(C)C(=O)CC[C@@H]12 | > 128 | > 128 | 99.5 | > 128 | > 128
12 | O=c1[nH]cc(F)c(=O)[nH]1 [FLUOROURACIL] | 5.61 | 3.26 | 1.25 | 3.17 | 
13 | C[C@]12CC[C@H](OC(=O)Cn3cc(COc4ccccc4[N+](=O)[O-])nn3)CC1=CC[C@@H]1[C@@H]2CC[C@]2(C)C(=O)CC[C@@H]12 | > 128 | 65 | 51.3 | 49.8 | 45.1
14 | Cc1ccc(/C=C/C(=O)c2ccc(OCc3cn(CC(=O)O[C@H]4CC[C@@]5(C)C(=CC[C@@H]6[C@@H]5CC[C@]5(C)C(=O)CC[C@@H]65)C4)nn3)cc2)cc1 | > 128 | 50.1 | > 128 | > 128 | 73.3
15 | C[C@]12CC[C@H](OC(=O)Cn3cc(CN4C(=O)C(=O)c5ccccc54)nn3)CC1=CC[C@@H]1[C@@H]2CC[C@]2(C)C(=O)CC[C@@H]12 | 45.6 | 8.62 | > 128 | > 128 | > 128
16 | C[C@]12CC[C@H](OC(=O)Cn3cc(COc4ccc5ccc(=O)oc5c4)nn3)CC1=CC[C@@H]1[C@@H]2CC[C@]2(C)C(=O)CC[C@@H]12 | 43.7 | 54.9 | > 128 | > 128 | > 128
17 | Cc1ccc(OCc2cn(CC(=O)O[C@H]3CC[C@@]4(C)C(=CC[C@@H]5[C@@H]4CC[C@]4(C)C(=O)CC[C@@H]54)C3)nn2)cc1 | 18.5 | 26.9 | 21.6 | 23.9 | 38.6
18 | C[C@]12CC[C@H](OC(=O)Cn3cc(COc4cc(=O)oc5ccccc45)nn3)CC1=CC[C@@H]1[C@@H]2CC[C@]2(C)C(=O)CC[C@@H]12 | 40 | > 128 | > 128 | > 128 | > 128
19 | C[C@]12CC[C@H](OC(=O)Cn3cc(CN4C(=O)C(=O)c5cc(Br)ccc54)nn3)CC1=CC[C@@H]1[C@@H]2CC[C@]2(C)C(=O)CC[C@@H]12 | 39.2 | 10.3 | 32.5 | 44.1 | > 128
20 | O=c1c(F)cn(Cc2cn(Cc3ccccc3Cl)nn2)c(=O)n1Cc1cn(Cc2ccccc2Cl)nn1 | > 128 | > 128 | > 128 | > 128 | > 128
21 | C[C@]12CC[C@H](OC(=O)Cn3cc(COc4ccc(C(=O)/C=C/c5ccc(Cl)c(Cl)c5)cc4)nn3)CC1=CC[C@@H]1[C@@H]2CC[C@]2(C)C(=O)CC[C@@H]12 | > 128 | 36.6 | > 128 | > 128 | > 128
22 | Cc1cc(=O)oc2cc(OCc3cn(CC(=O)O[C@H]4CC[C@@]5(C)C(=CC[C@@H]6[C@@H]5CC[C@]5(C)C(=O)CC[C@@H]65)C4)nn3)ccc12 | 47.4 | 49.5 | > 128 | > 128 | > 128
23 | C[C@]12CC[C@H](OC(=O)Cn3cc(CNc4ccc(Br)cc4)nn3)CC1=CC[C@@H]1[C@@H]2CC[C@]2(C)C(=O)CC[C@@H]12 | 86.7 | 59.4 | 19.4 | 37.1 | 27.6
24 | C[C@]12CC[C@H](OC(=O)Cn3cc(CN4C(=O)C(=O)c5cccc(Cl)c54)nn3)CC1=CC[C@@H]1[C@@H]2CC[C@]2(C)C(=O)CC[C@@H]12 | 20.8 | 14.6 | 8.74 | 84.6 | 13.3
25 | C[C@]12CC[C@H](OC(=O)Cn3cc(CN4C(=O)C(=O)c5c(Br)cccc54)nn3)CC1=CC[C@@H]1[C@@H]2CC[C@]2(C)C(=O)CC[C@@H]12 | 21.3 | > 128 | 26.4 | 78.4 | > 128
